ChEMBL document CHEMBL5724914, “Linking interpersonal differences in gut microbiota composition and drug biotransformation activity” (2024)
Where a SMILES comes first, the peptide text is derived from it. [ ]: non-standard residue; d: D form. pGlu = O=C1CC[C@@H](C(=O)O)N1; Thz = O=C(O)[C@@H]1CSCN1

Key:
[1] = The drug is tested on Z-029 corresponding to rat gut metagenome with ENA study accession number: PRJEB37062 and ENA sample accession number: ERS12561828 for biotransformation under anaerobic condition. The drug concentrations were measured over 9 timepoints collected between 0 and 24 hours of incubation by liquid-chromatography-coupled mass spectrometry (LC–MS); details: 2 µM
[2] = The drug is tested on Z-022 corresponding to mouse gut metagenome with ENA study accession number: PRJEB37062 and ENA sample accession number: ERS12561821 for biotransformation under anaerobic condition. The drug concentrations were measured over 9 timepoints collected between 0 and 24 hours of incubation by liquid-chromatography-coupled mass spectrometry (LC–MS); details: 2 µM
[3] = The drug is tested on Z-018 corresponding to pig gut metagenome with ENA study accession number: PRJEB37062 and ENA sample accession number: ERS12561817 for biotransformation under anaerobic condition. The drug concentrations were measured over 9 timepoints collected between 0 and 24 hours of incubation by liquid-chromatography-coupled mass spectrometry (LC–MS); details: 2 µM
[4] = The drug is tested on Z-014 corresponding to rat gut metagenome with ENA study accession number: PRJEB37062 and ENA sample accession number: ERS12561814 for biotransformation under anaerobic condition. The drug concentrations were measured over 9 timepoints collected between 0 and 24 hours of incubation by liquid-chromatography-coupled mass spectrometry (LC–MS); details: 2 µM
[5] = The drug is tested on Z-010 corresponding to metagenome with ENA study accession number: PRJEB37062 and ENA sample accession number: ERS12561810 for biotransformation under anaerobic condition. The drug concentrations were measured over 9 timepoints collected between 0 and 24 hours of incubation by liquid-chromatography-coupled mass spectrometry (LC–MS); details: 2 µM
[6] = The drug is tested on WLS-350 corresponding to human gut metagenome with ENA study accession number: PRJEB37062 and ENA sample accession number: ERS12561789 for biotransformation under anaerobic condition. The drug concentrations were measured over 9 timepoints collected between 0 and 24 hours of incubation by liquid-chromatography-coupled mass spectrometry (LC–MS); details: 2 µM
[7] = The drug is tested on WLS-090 corresponding to human gut metagenome with ENA study accession number: PRJEB37062 and ENA sample accession number: ERS12561753 for biotransformation under anaerobic condition. The drug concentrations were measured over 9 timepoints collected between 0 and 24 hours of incubation by liquid-chromatography-coupled mass spectrometry (LC–MS); details: 2 µM
[8] = The drug is tested on WLS-039 corresponding to human gut metagenome with ENA study accession number: PRJEB37062 and ENA sample accession number: ERS12561746 for biotransformation under anaerobic condition. The drug concentrations were measured over 9 timepoints collected between 0 and 24 hours of incubation by liquid-chromatography-coupled mass spectrometry (LC–MS); details: 2 µM
[9] = The drug is tested on WLS-038 corresponding to human gut metagenome with ENA study accession number: PRJEB37062 and ENA sample accession number: ERS12561745 for biotransformation under anaerobic condition. The drug concentrations were measured over 9 timepoints collected between 0 and 24 hours of incubation by liquid-chromatography-coupled mass spectrometry (LC–MS); details: 2 µM
[10] = The drug is tested on WLS-027 corresponding to human gut metagenome with ENA study accession number: PRJEB37062 and ENA sample accession number: ERS12561744 for biotransformation under anaerobic condition. The drug concentrations were measured over 9 timepoints collected between 0 and 24 hours of incubation by liquid-chromatography-coupled mass spectrometry (LC–MS); details: 2 µM
[11] = The drug is tested on WLS-010 corresponding to human gut metagenome with ENA study accession number: PRJEB37062 and ENA sample accession number: ERS12561743 for biotransformation under anaerobic condition. The drug concentrations were measured over 9 timepoints collected between 0 and 24 hours of incubation by liquid-chromatography-coupled mass spectrometry (LC–MS); details: 2 µM
[12] = human gut metagenome, 24 h, 2 µM
[13] = human gut metagenome, 24 h, 2 µM; remark: listed apart in the source
[14] = human gut metagenome, 24 h, 2 µM; remark: listed apart in the source
[15] = human gut metagenome, 24 h, 2 µM; remark: listed apart in the source
[16] = human gut metagenome, 24 h, 2 µM; remark: listed apart in the source
[17] = human gut metagenome, 24 h, 2 µM; remark: listed apart in the source
[18] = human gut metagenome, 24 h, 2 µM; remark: listed apart in the source
[19] = human gut metagenome, 24 h, 2 µM; remark: listed apart in the source
[20] = human gut metagenome, 24 h, 2 µM; remark: listed apart in the source
Note: call rule not given here.

| Structure (SMILES) | Bacterial Biotransformation [1] | Bacterial Biotransformation [2] | Bacterial Biotransformation [3] | Bacterial Biotransformation [4] | Bacterial Biotransformation [5] | Bacterial Biotransformation [6] | Bacterial Biotransformation [7] | Bacterial Biotransformation [8] | Bacterial Biotransformation [9] | Bacterial Biotransformation [10] | Bacterial Biotransformation [11] | Bacterial Biotransformation [12] | Bacterial Biotransformation [13] | Bacterial Biotransformation [14] | Bacterial Biotransformation [15] | Bacterial Biotransformation [16] | Bacterial Biotransformation [17] | Bacterial Biotransformation [18] | Bacterial Biotransformation [19] | Bacterial Biotransformation [20] |
| --- | --- | --- | --- | --- | --- | --- | --- | --- | --- | --- | --- | --- | --- | --- | --- | --- | --- | --- | --- | --- |
| CCCc1nc2c(C)cc(-c3nc4ccccc4n3C)cc2n1Cc1ccc(-c2ccccc2C(=O)O)cc1 | Compound NOT metabolized | Compound metabolized | Compound metabolized | Compound metabolized | Compound metabolized | Compound metabolized | Compound metabolized | Compound metabolized | Compound metabolized | Compound metabolized | Compound metabolized | Compound metabolized | Compound metabolized | Compound metabolized | Compound metabolized | Compound NOT metabolized | Compound metabolized | Compound metabolized | Compound NOT metabolized | Compound metabolized |
| C[C@@H]1C[C@H]2[C@@H]3CCC4=CC(=O)C=C[C@]4(C)[C@@]3(F)[C@@H](O)C[C@]2(C)[C@@]1(O)C(=O)CO [DEXAMETHASONE] | Compound NOT metabolized | Compound metabolized | Compound metabolized | Compound NOT metabolized | Compound NOT metabolized | Compound NOT metabolized | – | Compound NOT metabolized | Compound NOT metabolized | Compound NOT metabolized | Compound metabolized | Compound NOT metabolized | Compound NOT metabolized | Compound NOT metabolized | Compound NOT metabolized | Compound NOT metabolized | Compound NOT metabolized | Compound NOT metabolized | Compound NOT metabolized | Compound NOT metabolized |
| NC(=O)N1c2ccccc2CC(=O)c2ccccc21 [OXCARBAZEPINE] | Compound NOT metabolized | Compound metabolized | Compound metabolized | Compound NOT metabolized | Compound metabolized | Compound metabolized | Compound NOT metabolized | Compound NOT metabolized | Compound NOT metabolized | Compound NOT metabolized | – | Compound metabolized | Compound metabolized | Compound NOT metabolized | Compound NOT metabolized | Compound NOT metabolized | Compound NOT metabolized | Compound NOT metabolized | Compound NOT metabolized | Compound NOT metabolized |
| O=C1CC[C@@H](C(=O)N2CSC[C@H]2C(=O)O)N1 [PIDOTIMOD] ([pGlu]-[Thz]-OH) | Compound NOT metabolized | Compound metabolized | Compound metabolized | Compound NOT metabolized | Compound metabolized | Compound NOT metabolized | Compound NOT metabolized | – | Compound metabolized | Compound NOT metabolized | Compound NOT metabolized | Compound NOT metabolized | Compound NOT metabolized | – | – | Compound NOT metabolized | – | Compound NOT metabolized | Compound NOT metabolized | Compound NOT metabolized |

Further lines, results first:

| Bacterial Biotransformation [1] | Bacterial Biotransformation [2] | Bacterial Biotransformation [3] | Bacterial Biotransformation [4] | Bacterial Biotransformation [5] | Bacterial Biotransformation [6] | Bacterial Biotransformation [7] | Bacterial Biotransformation [8] | Bacterial Biotransformation [9] | Bacterial Biotransformation [10] | Bacterial Biotransformation [11] | Bacterial Biotransformation [12] | Bacterial Biotransformation [13] | Bacterial Biotransformation [14] | Bacterial Biotransformation [15] | Bacterial Biotransformation [16] | Bacterial Biotransformation [17] | Bacterial Biotransformation [18] | Bacterial Biotransformation [19] | Bacterial Biotransformation [20] | Structure (SMILES) |
| --- | --- | --- | --- | --- | --- | --- | --- | --- | --- | --- | --- | --- | --- | --- | --- | --- | --- | --- | --- | --- |
| Compound NOT metabolized | Compound NOT metabolized | Compound NOT metabolized | Compound NOT metabolized | Compound NOT metabolized | Compound metabolized | Compound metabolized | Compound metabolized | Compound metabolized | Compound metabolized | Compound metabolized | Compound metabolized | Compound metabolized | Compound metabolized | Compound metabolized | Compound NOT metabolized | Compound metabolized | Compound metabolized | Compound metabolized | Compound metabolized | CCCCC(=O)N(Cc1ccc(-c2ccccc2-c2nnn[nH]2)cc1)[C@H](C(=O)O)C(C)C |
| Compound NOT metabolized | Compound metabolized | Compound metabolized | Compound NOT metabolized | Compound metabolized | Compound NOT metabolized | Compound NOT metabolized | Compound metabolized | Compound metabolized | Compound metabolized | – | Compound metabolized | Compound metabolized | Compound metabolized | Compound metabolized | Compound metabolized | Compound metabolized | Compound metabolized | Compound metabolized | Compound metabolized | CCCc1nc(C(C)(C)O)c(C(=O)OCc2oc(=O)oc2C)n1Cc1ccc(-c2ccccc2-c2nnn[nH]2)cc1 [OLMESARTAN MEDOXOMIL] |
